Experimental data reported in ChEMBL document CHEMBL5236634, “Membrane-Targeting Neolignan-Antimicrobial Peptide Mimic Conjugates to Combat Methicillin-Resistant Staphylococcus aureus (MRSA) Infections” (J Med Chem, 2022).
Calls of active or inactive are those of the source. No cut-off for these calls is given here.

Key:
[1] = Toxicity in BALB/c mouse assessed as effect on urea level at 50 mg/kg, ip administered as single dose and measured after 24 hrs; type: organism-based; settings: in vivo
[2] = Stability in 50% plasma (unknown origin) assessed as change in MBC against methicillin-resistant Staphylococcus aureus 15 measured for 6 hrs; type: ADME, cell-free
Staphylococcus aureus [3] = test: Antibacterial activity against methicillin-resistant Staphylococcus aureus 15 infected in BALB/c mouse sepsis model assessed as reduction in bacterial load in spleen at 10 mg/kg, ip measured after 48 hrs; type: functional, organism-based
Staphylococcus aureus [4] = test: Antibacterial activity against methicillin-resistant Staphylococcus aureus 15 infected in BALB/c mouse sepsis model assessed as improvement in survival rate at 5 to 10 mg/kg, ip administered for 7 days; type: functional, organism-based; settings: dose 5-10 mg/kg, time 7.0 day
L02 [5] = test: Cytotoxicity against human L02 cells assessed as effect on cell morphology at 2.5 to 80 ug/ml incubated for 24 hrs by Hoechst 33342 and propidium iodide staining based fluorescence microscopic analysis; type: toxicity; settings: l02, 24 h, dose 2.5-80 µg/ml
[6] = Toxicity in BALB/c mouse assessed as effect on platelet count at 50 mg/kg, ip administered as single dose and measured after 24 hrs; type: organism-based; settings: in vivo
[7] = Toxicity in BALB/c mouse assessed as pathological changes in liver at 50 mg/kg, ip administered as single dose and measured after 24 hrs by H & E staining based analysis; type: organism-based; settings: in vivo
Cell membrane = test: Disruption of membrane integrity in methicillin-resistant Staphylococcus aureus 15 assessed as increase in fluorescence intensity at 32 ug/ml measured immediately by Sytox green based fluorescence method; type: subcellular; settings: dose 32.0 µg/ml
Staphylococcus aureus [8] = test: Antibacterial activity against methicillin-resistant Staphylococcus aureus 15 infected in BALB/c mouse sepsis model assessed as normalization of cell morphology in spleen at 10 mg/kg, ip measured after 48 hrs by H & E staining based analysis; type: functional, organism-based
Staphylococcus aureus [9] = test: Bactericidal activity against methicillin-resistant Staphylococcus aureus 15 at 4 to 8 times MIC measured after 3 hrs by time kill assay; type: functional
[10] = Toxicity in BALB/c mouse assessed as effect on hematocrit level at 50 mg/kg, ip administered as single dose and measured after 24 hrs; type: organism-based; settings: in vivo
[11] = Toxicity in BALB/c mouse assessed as effect on RBC count at 50 mg/kg, ip administered as single dose and measured after 24 hrs; type: organism-based, Erythrocyte; settings: in vivo
Staphylococcus aureus [12] = test: Inhibition of biofilm formation in Staphylococcus aureus ATCC 29213 incubated for 24 hrs by crystalline violet staining based analysis; type: functional, organism-based; settings: dose 0.125-64 µg/ml
Escherichia coli = test: Antibacterial activity against Escherichia coli ATCC 25922 assessed as inhibition of bacterial growth incubated for 16 to 20 hrs by CLSI based microdilution method; type: functional; settings: time 16-20 hrs
Staphylococcus aureus [13] = test: Antibiofilm activity against methicillin-resistant Staphylococcus aureus 15 assessed as reduction in live bacteria in biofilm incubated for 24 hrs by crystal violet staining based analysis; type: functional, organism-based; settings: dose 0-128 µg/ml
L02 [14] = test: Cytotoxicity against human L02 cells assessed as reduction in cell viability at 2.5 to 80 ug/ml incubated for 24 hrs by CCK-8 assay; type: toxicity, cell-based; settings: l02, 24 h, dose 2.5-80 µg/ml
Staphylococcus aureus [15] = test: Antibacterial activity against Staphylococcus aureus ATCC 29213 assessed as inhibition of bacterial growth incubated for 16 to 20 hrs by CLSI based microdilution method; type: functional; settings: time 16-20 hrs
Staphylococcus aureus [16] = test: Antibacterial activity against methicillin-resistant Staphylococcus aureus 15 infected in BALB/c mouse sepsis model assessed as reduction in bacterial load in liver at 10 mg/kg, ip measured after 48 hrs; type: functional, organism-based
Staphylococcus aureus [17] = test: Upregulation of YidC gene expression in methicillin-resistant Staphylococcus aureus 15 assessed as log2 of fold change in gene expression at 8 ug/ml incubated for 6 hrs by transcriptome analysis; type: functional; settings: dose 8 µg/ml
[18] = Binding affinity to methicillin-resistant Staphylococcus aureus 15 phosphatidylglycerol assessed as dissociation constant by ITC method
Staphylococcus aureus [19] = test: Upregulation of SPI gene expression in methicillin-resistant Staphylococcus aureus 15 assessed as log2 of fold change in gene expression at 8 ug/ml incubated for 6 hrs by transcriptome analysis; type: functional; settings: dose 8 µg/ml
[20] = Binding affinity to methicillin-resistant Staphylococcus aureus 15 cardiolipin assessed as dissociation constant by ITC method
Staphylococcus aureus [21] = test: Downregulation of pgaC gene expression in methicillin-resistant Staphylococcus aureus 15 assessed as fold change in gene expression at 8 ug/ml incubated for 6 hrs by transcriptome analysis; type: functional; settings: dose 8 µg/ml
Staphylococcus aureus [22] = test: Upregulation of rplJ gene expression in methicillin-resistant Staphylococcus aureus 15 assessed as log2 of fold change in gene expression at 8 ug/ml incubated for 6 hrs by transcriptome analysis; type: functional; settings: dose 8 µg/ml

| SMILES | Activity [1] | Stability [2] | Activity (Staphylococcus aureus [3]) | Activity (Staphylococcus aureus [4]) | Activity (L02 [5]) | Activity [6] | Activity [7] | Activity (Cell membrane) | Activity (Staphylococcus aureus [8]) | Activity (Staphylococcus aureus [9]) | Activity [10] | Activity [11] | inhibition (Staphylococcus aureus [12]) | MIC (Escherichia coli) | Activity (Staphylococcus aureus [13]) | Activity (L02 [14]) | MIC (Staphylococcus aureus [15]) | Activity (Staphylococcus aureus [16]) | further results |
| --- | --- | --- | --- | --- | --- | --- | --- | --- | --- | --- | --- | --- | --- | --- | --- | --- | --- | --- | --- |
| C=CCc1cccc(Oc2ccc(C(=O)CC)cc2)c1OCC[N+](C)(C)CC(=O)NCCCCCC.[Br-] | Non-Toxic | Stable | Active | Active | Non-Toxic | Non-Toxic | Non-Toxic | Active | Active | 100% | Non-Toxic | Non-Toxic | Dose-Dependent Effect | 8 µg/mL | Active | Non-Toxic | 2 µg/mL | Active | – |
| C=CCc1cccc(Oc2ccc(C(=O)CC)cc2)c1OCCC[N+](C)(C)CC(=O)NCCCCCC.[Br-] | Non-Toxic | Stable | Active | Active | Non-Toxic | Non-Toxic | Non-Toxic | Active | Active | 100% | Non-Toxic | Non-Toxic | Dose-Dependent Effect | 16 µg/mL | Active | Non-Toxic | 2 µg/mL | Active | log2FC (Staphylococcus aureus [17]): 1.27; Kd [18]: 3430 nM; log2FC (Staphylococcus aureus [19]): 1.96; Kd [20]: 1330 nM; log2FC (Staphylococcus aureus [21]): -2.8; log2FC (Staphylococcus aureus [22]): 1.8 |
